Source: ChEMBL document CHEMBL1201862, “PubChem BioAssay data set” (2004)
Activity calls are given as the source filed them.

Legend:
[1] = molecular target: DNA damage-inducible transcript 3 protein (Mus musculus, UniProt P35639); assay type: functional, Cricetulus griseus
[2] = test system: HEK293; experiment: cells; assay type: functional, cell-based; details: Homo sapiens
[3] = test system: HEK293; experiment: cells; assay type: functional, cell-based; details: Homo sapiens; remark: listed apart in the source
[4] = test system: HEK293; experiment: inhibition of NOD1-driven NF-kB reporter – cell-based, luminescence, uHTS, primary screen (AID 1578); assay type: functional; details: Homo sapiens
[5] = molecular target: T1, Carboxy-terminal domain RNA polymerase II polypeptide A small phosphatase 1 (Homo sapiens, UniProt Q9GZU7); experiment: CTDSP1 inhibitors, concentration-response, biochemical, absorbance readout, ultra-high-throughput screen actives (AID 540297); assay type: functional
T1 sequence (Q9GZU7 whole entry): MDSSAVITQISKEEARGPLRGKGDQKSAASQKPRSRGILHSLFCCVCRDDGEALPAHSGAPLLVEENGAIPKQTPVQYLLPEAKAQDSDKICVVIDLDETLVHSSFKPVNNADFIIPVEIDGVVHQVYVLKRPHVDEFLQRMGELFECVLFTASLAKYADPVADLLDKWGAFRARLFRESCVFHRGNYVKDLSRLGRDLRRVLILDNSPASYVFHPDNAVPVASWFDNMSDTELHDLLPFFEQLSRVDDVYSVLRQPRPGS

[6] = test system: HEK293; experiment: NOD2 signaling inhibitors in MDP-stimulated cells, cell-based, uHTS, luminescence (AID 2001); assay type: functional; details: Homo sapiens
[7] = molecular target: Nucleotide-binding oligomerization domain-containing protein 2 (Homo sapiens, UniProt Q9HC29); experiment: inhibition of NOD2-driven NF-kB reporter – cell-based, luminescence, uHTS, HEK293 (AID 1566); assay type: functional
[8] = test system: HEK293; experiment: cells; assay type: functional, cell-based; details: Homo sapiens; remark: listed apart in the source
[9] = cells; assay type: functional
[10] = viability of HCT116 lacking mutant beta-catenin – cell-based, human colon tumor, dose response (AID 1045); assay type: functional;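 also: HCT116 colon tumor cells with beta catenin knocked out; cells exposed to compound for 60 hours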
[11] = molecular target: T2, Voltage-gated N-type calcium channel alpha-1B subunit/Amyloid beta A4 precursor protein-binding family A member 1 (Homo sapiens, UniProt Q00975+Q02410); assay type: protein assay
T2 sequence (Q00975 whole entry): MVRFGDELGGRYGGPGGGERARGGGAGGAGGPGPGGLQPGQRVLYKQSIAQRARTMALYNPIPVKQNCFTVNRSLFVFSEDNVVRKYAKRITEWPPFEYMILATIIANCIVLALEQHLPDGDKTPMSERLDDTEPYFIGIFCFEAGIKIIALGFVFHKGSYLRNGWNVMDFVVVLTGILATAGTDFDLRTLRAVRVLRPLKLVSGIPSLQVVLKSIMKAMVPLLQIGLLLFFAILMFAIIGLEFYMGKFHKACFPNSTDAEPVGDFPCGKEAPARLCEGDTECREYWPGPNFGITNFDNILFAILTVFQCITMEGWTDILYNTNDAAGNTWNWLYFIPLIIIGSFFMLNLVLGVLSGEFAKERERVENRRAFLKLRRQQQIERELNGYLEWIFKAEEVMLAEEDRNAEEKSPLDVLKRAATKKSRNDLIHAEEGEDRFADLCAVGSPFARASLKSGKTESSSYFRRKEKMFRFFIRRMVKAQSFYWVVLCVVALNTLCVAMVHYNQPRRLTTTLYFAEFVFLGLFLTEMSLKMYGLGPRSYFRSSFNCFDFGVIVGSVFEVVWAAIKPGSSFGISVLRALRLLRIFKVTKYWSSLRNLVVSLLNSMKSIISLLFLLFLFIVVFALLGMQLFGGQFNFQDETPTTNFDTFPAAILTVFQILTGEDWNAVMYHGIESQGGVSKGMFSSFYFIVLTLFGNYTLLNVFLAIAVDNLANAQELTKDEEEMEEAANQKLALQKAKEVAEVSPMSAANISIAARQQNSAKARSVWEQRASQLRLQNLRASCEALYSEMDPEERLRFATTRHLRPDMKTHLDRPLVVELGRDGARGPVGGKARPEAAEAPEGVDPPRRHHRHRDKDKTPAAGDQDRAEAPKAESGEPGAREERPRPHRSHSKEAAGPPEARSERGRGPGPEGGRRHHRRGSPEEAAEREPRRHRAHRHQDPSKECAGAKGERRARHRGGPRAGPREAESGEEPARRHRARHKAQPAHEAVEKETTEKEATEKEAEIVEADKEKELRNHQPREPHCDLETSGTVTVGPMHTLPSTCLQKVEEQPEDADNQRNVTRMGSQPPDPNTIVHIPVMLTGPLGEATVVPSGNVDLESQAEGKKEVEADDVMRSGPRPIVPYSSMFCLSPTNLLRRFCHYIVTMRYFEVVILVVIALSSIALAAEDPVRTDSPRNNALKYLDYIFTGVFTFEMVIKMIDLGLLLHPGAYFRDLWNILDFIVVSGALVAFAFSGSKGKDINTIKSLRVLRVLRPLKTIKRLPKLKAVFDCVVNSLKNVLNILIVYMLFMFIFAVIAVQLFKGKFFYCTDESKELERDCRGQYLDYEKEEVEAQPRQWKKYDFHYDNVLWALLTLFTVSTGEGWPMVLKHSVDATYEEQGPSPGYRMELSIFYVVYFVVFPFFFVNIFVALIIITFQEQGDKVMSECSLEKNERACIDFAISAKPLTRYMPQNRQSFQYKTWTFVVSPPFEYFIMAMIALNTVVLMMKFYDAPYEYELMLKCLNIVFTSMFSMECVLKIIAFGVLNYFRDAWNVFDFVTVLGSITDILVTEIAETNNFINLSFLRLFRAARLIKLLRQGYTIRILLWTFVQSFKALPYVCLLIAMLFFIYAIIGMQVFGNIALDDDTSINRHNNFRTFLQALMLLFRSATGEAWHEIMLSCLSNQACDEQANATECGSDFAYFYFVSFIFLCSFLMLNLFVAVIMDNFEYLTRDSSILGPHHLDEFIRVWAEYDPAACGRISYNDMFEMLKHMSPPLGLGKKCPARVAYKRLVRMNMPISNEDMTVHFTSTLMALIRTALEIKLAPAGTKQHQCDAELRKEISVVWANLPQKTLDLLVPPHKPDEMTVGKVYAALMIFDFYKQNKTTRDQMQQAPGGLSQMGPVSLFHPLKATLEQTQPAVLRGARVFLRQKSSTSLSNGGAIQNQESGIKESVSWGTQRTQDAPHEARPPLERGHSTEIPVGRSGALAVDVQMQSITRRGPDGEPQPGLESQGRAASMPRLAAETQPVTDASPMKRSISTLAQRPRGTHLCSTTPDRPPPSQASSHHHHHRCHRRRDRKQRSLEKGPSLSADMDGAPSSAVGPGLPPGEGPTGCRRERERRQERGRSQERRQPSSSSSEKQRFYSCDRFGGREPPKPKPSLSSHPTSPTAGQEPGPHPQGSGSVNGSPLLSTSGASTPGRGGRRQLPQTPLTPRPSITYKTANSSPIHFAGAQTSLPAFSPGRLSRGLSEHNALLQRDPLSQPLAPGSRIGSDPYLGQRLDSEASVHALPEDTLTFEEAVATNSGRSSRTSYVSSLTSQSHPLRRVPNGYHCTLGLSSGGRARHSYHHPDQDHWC
T2 sequence (Q02410 whole entry): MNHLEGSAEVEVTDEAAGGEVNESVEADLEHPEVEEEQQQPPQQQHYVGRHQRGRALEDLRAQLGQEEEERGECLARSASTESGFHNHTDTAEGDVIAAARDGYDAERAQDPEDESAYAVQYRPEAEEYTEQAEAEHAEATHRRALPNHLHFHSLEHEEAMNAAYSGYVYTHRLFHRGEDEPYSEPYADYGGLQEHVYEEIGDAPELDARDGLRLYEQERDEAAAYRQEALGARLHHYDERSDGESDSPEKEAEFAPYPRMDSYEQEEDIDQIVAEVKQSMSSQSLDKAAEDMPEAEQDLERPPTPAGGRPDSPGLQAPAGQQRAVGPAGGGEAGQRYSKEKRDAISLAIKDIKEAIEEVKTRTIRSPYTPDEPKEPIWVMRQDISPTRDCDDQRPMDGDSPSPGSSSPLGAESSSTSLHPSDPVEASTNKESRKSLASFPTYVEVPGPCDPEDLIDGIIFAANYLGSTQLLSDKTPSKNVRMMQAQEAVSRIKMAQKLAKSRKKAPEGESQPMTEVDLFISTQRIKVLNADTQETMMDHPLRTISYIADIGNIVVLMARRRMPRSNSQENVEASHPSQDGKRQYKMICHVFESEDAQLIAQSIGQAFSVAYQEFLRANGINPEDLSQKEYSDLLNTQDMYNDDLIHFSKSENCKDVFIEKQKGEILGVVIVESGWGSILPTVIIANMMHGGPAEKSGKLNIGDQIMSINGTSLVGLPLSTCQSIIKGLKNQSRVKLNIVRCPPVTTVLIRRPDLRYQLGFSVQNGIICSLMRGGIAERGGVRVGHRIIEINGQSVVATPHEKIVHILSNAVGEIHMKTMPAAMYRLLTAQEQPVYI

[12] = THP-1 cell cytotoxicity, dose response, cytotoxicity control for non-replicating M. tuberculosis project (AID 489025); assay type: functional
[13] = viability of PTEN-deleted HCT116 cells – cell-based, HCT116 PTEN knockout, dose response (AID 1047); assay type: functional;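 also: HCT116 colon tumor cells with PTEN knocked out; cells exposed to compound for 60 hours before readout; potency for loss of cell viability measured by luminescence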
[14] = molecular target: Large T antigen (Simian virus 40, UniProt P03070); assay type: functional, Betapolyomavirus macacae;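 also: Confirmatory-stage PubChem screen for compounds that inhibit SV40 T antigen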
[15] = molecular target: T2, Voltage-gated N-type calcium channel alpha-1B subunit/Amyloid beta A4 precursor protein-binding family A member 1; assay type: protein assay; remark: listed apart in the source
[16] = molecular target: T3, Microphthalmia-associated transcription factor (Homo sapiens, UniProt O75030); experiment: reducers of TRPM1 reporter luminescence, concentration series – cell-based, SK-MEL-5, cherry-picked, set 3, MITF inhibitor project, dose response (AID 493073); assay type: functional;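 also: SK-MEL-5 melanoma cells with luciferase driven by the MITF target TRPM1 promoter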
T3 sequence (O75030 whole entry): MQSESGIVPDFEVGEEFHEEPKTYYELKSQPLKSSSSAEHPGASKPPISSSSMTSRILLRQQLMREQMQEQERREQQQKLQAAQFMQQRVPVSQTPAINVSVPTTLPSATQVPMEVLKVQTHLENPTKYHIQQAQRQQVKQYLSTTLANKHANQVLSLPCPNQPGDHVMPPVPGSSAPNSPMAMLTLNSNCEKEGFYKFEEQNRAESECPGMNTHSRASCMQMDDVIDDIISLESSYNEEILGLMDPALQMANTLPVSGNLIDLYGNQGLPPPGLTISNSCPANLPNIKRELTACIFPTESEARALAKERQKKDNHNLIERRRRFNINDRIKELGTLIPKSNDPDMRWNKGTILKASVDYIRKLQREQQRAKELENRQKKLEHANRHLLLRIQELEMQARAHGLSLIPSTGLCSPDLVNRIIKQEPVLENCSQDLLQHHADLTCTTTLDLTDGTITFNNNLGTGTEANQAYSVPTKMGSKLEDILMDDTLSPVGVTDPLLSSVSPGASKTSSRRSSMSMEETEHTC

[17] = molecular target: Neurotensin receptor type 1 (Homo sapiens, UniProt P30989); assay type: functional;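 also: Image-based confirmatory dose-response assay measuring agonist activity at NTR1; NTR1-expressing U2OS osteosarcoma cells imaged for beta-arrestin GFP spot formation; agonist potency where compounds increase beta-arrestin recruitment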
Sequence of Neurotensin receptor type 1 (P30989 whole entry): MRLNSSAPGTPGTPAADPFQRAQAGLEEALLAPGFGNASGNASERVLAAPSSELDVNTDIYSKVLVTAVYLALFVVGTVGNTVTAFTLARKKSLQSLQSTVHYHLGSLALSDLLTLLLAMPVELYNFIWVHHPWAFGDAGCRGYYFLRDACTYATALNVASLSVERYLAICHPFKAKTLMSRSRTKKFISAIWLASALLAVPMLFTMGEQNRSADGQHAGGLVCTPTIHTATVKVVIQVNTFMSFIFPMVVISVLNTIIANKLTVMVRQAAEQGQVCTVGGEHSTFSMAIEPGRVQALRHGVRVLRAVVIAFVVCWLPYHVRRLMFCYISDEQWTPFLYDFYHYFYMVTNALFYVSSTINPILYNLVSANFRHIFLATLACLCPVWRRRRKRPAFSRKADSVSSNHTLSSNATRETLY

[18] = molecular target: T4, Protein skinhead-1 (Caenorhabditis elegans, UniProt P34707); assay type: functional
T4 sequence (P34707 whole entry): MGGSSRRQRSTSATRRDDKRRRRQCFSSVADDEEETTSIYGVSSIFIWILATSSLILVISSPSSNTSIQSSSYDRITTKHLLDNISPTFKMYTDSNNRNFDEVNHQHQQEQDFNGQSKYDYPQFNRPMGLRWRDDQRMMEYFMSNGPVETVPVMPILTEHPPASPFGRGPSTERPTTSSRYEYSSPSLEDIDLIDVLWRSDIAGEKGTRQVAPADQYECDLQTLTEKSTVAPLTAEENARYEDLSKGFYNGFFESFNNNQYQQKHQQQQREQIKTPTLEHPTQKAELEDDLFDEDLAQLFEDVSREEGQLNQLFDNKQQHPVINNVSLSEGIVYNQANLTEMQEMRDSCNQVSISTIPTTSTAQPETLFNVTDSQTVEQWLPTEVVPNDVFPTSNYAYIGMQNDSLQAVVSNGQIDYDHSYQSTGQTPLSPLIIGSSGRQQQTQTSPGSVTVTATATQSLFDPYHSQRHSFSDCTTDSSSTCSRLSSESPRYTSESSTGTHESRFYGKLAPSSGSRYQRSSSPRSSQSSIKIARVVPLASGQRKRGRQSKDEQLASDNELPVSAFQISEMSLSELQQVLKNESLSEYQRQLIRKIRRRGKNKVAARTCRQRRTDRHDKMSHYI

[19] = A cytotoxicity screen of small molecule inhibitors of the PhoP region in Salmonella typhi identified in the primary screen. [Related pubchem assays: 1850, 1864, 1985 ]; assay type: functional
[20] = (§1) Counterscreen for antagonists of the orexin 1 receptor (OX1R; HCRTR1): Fluorescence-based cell-based high throughput dose response assay to identify antagonists of the parental CHO cell line. [Related pubchem assays (depositor defined):AID434989, AID435008, AID463079, AID485270, AID492963, AID492964, AID492965, AID493232, AID504699, AID504701]; assay type: functional
[21] = molecular target: T5, Orexin/Hypocretin receptor type 1 (Homo sapiens, UniProt O43613); experiment: (§2) Fluorescence-based cell-based high throughput dose response assay for antagonists of the orexin 1 receptor (OX1R; HCRTR1). [Related pubchem assays (depositor defined):AID434989, AID435008, AID463079, AID485270, AID492963, AID492964, AID492965, AID493232, AID504717, AID504718]; assay type: functional
T5 sequence (O43613 whole entry): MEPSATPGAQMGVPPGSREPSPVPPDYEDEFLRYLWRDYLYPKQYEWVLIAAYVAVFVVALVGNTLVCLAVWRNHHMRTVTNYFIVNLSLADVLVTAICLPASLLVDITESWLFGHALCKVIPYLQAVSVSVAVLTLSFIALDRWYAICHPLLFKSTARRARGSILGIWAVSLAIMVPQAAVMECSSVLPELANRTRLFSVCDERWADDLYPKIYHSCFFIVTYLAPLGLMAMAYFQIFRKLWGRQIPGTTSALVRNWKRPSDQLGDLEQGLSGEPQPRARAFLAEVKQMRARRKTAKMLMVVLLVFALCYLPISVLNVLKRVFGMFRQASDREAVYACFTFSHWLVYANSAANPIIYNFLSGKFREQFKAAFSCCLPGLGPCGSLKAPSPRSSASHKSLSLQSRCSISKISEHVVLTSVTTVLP

[22] = molecular target: T5, Orexin/Hypocretin receptor type 1; experiment: as §2, with “Homogeneous Time Resolved Fluorescence (HTRF)-based” for “Fluorescence-based”; assay type: functional
[23] = test system: CHO-K1; experiment: as §1, with “Homogeneous time resolved fluorescence (HTRF)-based” for “Fluorescence-based”, “cell-based” for “cell-based high throughput”, “CHO-K1” for “CHO”; assay type: functional; details: Cricetulus griseus;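 also: potency for inhibition of ATP-stimulated IP1 production as antagonists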
[24] = molecular target: Eukaryotic translation initiation factor 4H (Homo sapiens, UniProt Q15056); experiment: eIF4H binding inhibition – biochemical, uHTS, fluorescence polarization, translation initiation inhibitor project, primary screen (AID 2012)
[25] = molecular target: Polyadenylate-binding protein 1 (Homo sapiens, UniProt P11940); experiment: blockers of PABP interaction with poly(A) – biochemical, fluorescence polarization, […] (AID 2014)
Sequence of Polyadenylate-binding protein 1 (P11940 whole entry): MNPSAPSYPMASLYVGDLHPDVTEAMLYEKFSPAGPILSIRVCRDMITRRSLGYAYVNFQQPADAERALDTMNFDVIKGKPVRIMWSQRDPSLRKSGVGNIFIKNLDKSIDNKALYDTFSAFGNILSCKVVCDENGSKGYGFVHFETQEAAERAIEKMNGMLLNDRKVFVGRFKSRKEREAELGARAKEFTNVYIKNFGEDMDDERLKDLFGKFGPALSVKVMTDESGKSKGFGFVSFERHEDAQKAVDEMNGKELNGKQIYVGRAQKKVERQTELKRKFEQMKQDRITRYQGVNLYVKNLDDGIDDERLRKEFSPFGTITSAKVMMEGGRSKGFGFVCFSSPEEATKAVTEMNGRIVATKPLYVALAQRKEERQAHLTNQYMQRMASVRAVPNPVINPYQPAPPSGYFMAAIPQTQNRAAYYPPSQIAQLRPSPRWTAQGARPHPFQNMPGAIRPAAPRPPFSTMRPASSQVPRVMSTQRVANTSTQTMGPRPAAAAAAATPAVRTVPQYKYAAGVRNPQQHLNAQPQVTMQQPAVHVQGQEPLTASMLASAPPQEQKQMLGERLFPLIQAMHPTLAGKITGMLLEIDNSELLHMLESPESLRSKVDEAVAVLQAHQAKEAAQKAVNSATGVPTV

Sequence of DNA damage-inducible transcript 3 protein (P35639 whole entry): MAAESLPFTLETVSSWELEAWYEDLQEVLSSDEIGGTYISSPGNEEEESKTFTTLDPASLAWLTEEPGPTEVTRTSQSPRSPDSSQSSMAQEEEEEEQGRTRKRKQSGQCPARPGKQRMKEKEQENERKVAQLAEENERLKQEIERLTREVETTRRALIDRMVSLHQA

With `COc1ccc(C2=NN(C(=O)c3ccco3)C(c3cc4ccccc4nc3Cl)C2)cc1` (centres undefined) the “Absolute IC50 (CHOP)” value [1] was 10 µM.

In the case of `COc1ccc2c(c1)c(=O)oc1c(C)c(OCc3ccc(C(=O)O)cc3)ccc12`, the IC50 [2] is reported as > 20 µM (inactive), the IC50 [3] is reported as > 20 µM (inactive) and the EC50 [4] is reported as > 20 µM (inactive). For the same compound, the IC50 [5] was 2.01 µM (active), the IC50 [6] was > 20 µM (inactive) and the EC50 [7] was > 20 µM (inactive). For the same compound, the IC50 [8] was 14.4 µM (active).

For `Cc1cccc(N2CCN(C(=O)Cn3sc4nc(C)cc(C)c4c3=O)CC2C)c1` (centres undefined), the IC50 [9] was 23.8 µM (active), the EC50 [10] was 17 µM (active) and the IC50 [11] was 16.7 µM (active). The CC50 [12] was > 40 µM (active), the EC50 [13] was 17 µM (active) and the IC50 [14] was 18.1 µM (active). The IC50 [15] was > 50 µM (inactive).

For `Cn1cc([N+](=O)[O-])c(C(=O)Nc2nc(-c3ccc(Cl)cc3)cs2)n1`, the AC50 [16] was 10.5 µM (active), the EC50 [10] was 0.523 µM (active) and the EC50 [17] was 3.8 µM (active). For the same compound, the EC50 [13] was 0.596 µM (active).

For `FC(F)(F)c1cc(-c2cccs2)nc(-n2cc(Br)cn2)n1`, the IC50 [18] was > 100 µM (inactive) and the “Absolute IC50 (CHOP)” value [1] was 10 µM.

In the case of `Cc1c(C(=O)N2CCN(Cc3ccccc3)CC2)sc2ncnc(N3CCOCC3)c12`, the EC50 [19] is reported as > 50 µM (active).

For `Cc1nc2cc(NC(=O)COc3ccccc3C#N)ccc2n1-c1ccccc1`, the IC50 [20] was > 49.7 µM (inactive), the IC50 [21] was 3.45 µM (active) and the IC50 [22] was 1.61 µM (active). For the same compound, the IC50 [23] was > 66.2 µM (inactive).

With `O=C(NC(Cc1ccccc1)c1nc2ccccc2[nH]1)C1CC(=O)N(c2ccc3c(c2)OCCO3)C1` (centres undefined) the IC50 [24] was 56.2 µM (active), the IC50 [5] was 41.4 µM (active) and the IC50 [25] was 8.72 µM (active).
